Reference: paper PMC11940309, “Endocrine-Disrupting Activities of Flavones on Steroid Receptors: Structural Requirements and Synthesis of Novel Flavone with Improved Estrogenic Activity” (Biomedicines, 2025)

How the values were obtained:
estrogen receptor (ER) [1] = test system: estrogen receptor (ER); parameters: method as in PMID 11925457; conditions: previous report; cited from earlier work
estrogen receptor (ER) [2] = assay: ER-mediated luciferase reporter induction in T47D KBluc cells; type: cell-based, human; conditions: for % ER Induction: relative to 1nM estradiol
Description: Experiments testing the effect of flavonoids on estrogen receptor-mediated transcription employed T47D KBluc cells. These cells were maintained in RPMI medium with 10% FBS, penicillin (100 U/mL), and streptomycin (100 μg/mL). For reporter gene experiments, cells were detached as above and replated at 50% confluency in phenol red-free RPMI media with 10% charcoal-stripped FBS and antibiotics (day one). All subsequent steps used phenol red-free medium and trypsin. On day three, the medium was replaced with fresh medium. On day five, cells were washed with PBSE, detached, resuspended, diluted, and replated in the phenol red-free RPMI with charcoal-stripped serum (50,000 cells per well as above).
(§1) For all cell lines, cell harvesting and the luminescence assay for alkaline phosphatase and/or luciferase were performed as previously described in detail. Each condition was performed in quadruplicate. […] Percent inhibition is 100 minus the percent induction.

human AR = target: T1, human AR (Homo sapiens, UniProt P10275); assay: AR-mediated induction of PSA-luciferase reporter by R1881 in HeLa13 cells; type: cell-based; conditions: R1881 1.0 nM, read-out: % Inhibition of AR-Mediated Gene Induction
T1 construct: expressed in transfected cells; host or cells: HeLa13 (HeLa 13)
T1 sequence (P10275 1-920): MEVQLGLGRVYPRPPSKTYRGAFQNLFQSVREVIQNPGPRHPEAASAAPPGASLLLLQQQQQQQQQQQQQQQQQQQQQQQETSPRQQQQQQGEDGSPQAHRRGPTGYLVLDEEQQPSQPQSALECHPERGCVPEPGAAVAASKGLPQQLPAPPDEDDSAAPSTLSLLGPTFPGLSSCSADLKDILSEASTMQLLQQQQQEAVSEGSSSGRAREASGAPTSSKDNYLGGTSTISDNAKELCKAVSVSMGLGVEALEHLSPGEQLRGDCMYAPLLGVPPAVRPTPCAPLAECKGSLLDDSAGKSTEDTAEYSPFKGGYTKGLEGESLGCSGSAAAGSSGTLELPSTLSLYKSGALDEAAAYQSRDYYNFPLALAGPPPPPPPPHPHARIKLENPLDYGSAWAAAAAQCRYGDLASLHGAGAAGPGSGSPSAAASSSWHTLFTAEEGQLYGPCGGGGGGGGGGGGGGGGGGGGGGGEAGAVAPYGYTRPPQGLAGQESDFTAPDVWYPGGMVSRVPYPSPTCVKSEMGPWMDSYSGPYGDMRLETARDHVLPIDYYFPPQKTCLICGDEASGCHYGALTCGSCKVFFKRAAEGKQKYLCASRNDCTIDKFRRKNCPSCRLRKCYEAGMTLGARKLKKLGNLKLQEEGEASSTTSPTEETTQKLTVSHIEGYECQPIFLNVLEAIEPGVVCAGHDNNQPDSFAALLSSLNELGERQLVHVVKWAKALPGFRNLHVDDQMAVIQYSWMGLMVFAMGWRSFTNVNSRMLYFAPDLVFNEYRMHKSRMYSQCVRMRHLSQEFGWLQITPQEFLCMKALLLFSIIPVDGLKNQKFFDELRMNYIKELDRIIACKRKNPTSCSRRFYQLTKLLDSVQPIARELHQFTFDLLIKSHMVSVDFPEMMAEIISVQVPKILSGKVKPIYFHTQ
Description: (§2) The engineered T47D breast cancer cell lines employed for the assessment of flavonoid activity on glucocorticoid receptor (GR) and progesterone receptor (PR) signaling permitted the facile quantitation transcription of both an endogenous gene and a stably integrated reporter gene. […] The T47D K5pLuc cell line responds to progestins via induction of a stably integrated cytokeratin 5-luciferase reporter gene. […] For assessment of the effect of the test compounds on androgen receptor (AR) signaling, we used the HeLa13 cell line engineered to stably express human AR and a PSA-luciferase reporter gene containing a 4× multimerized PSA upstream enhancer ARE1 linked to the E4 TATA box and luciferase gene.
Experiments testing the effect of flavonoid on androgen receptor-mediated transcription employed HeLa 13 cells maintained in MEM medium supplemented with 10% FBS, 0.5 mg/mL G418, 0.05 mg/mL Hygromycin B, […], and streptomycin (100 μg/mL). For reporter gene experiments, cells were replated at a 1:5 dilution in MEM medium with 5% charcoal-stripped FBS and the antibiotics mentioned above. The medium was changed the next day. After 48 h, the cells were washed with PBSE, detached with phenol red-free trypsin, pelleted, resuspended and plated in 96 well plates as above. Hormone and flavonoid treatments were performed as described above with the HeLa 13 medium and charcoal-stripped FBS. When treated with hormone, the synthetic androgen, R1881, was used at 1.0 nM. Hormone treatment was for 20 h at which time cells were harvested for assay of luciferase.
as §1

[3] = target: T2, progesterone receptor (PR) (Homo sapiens, UniProt P06401); assay: PR-mediated induction of transcription by R5020 in T47D K5pLuc cells (luciferase reporter and endogenous alkaline phosphatase); type: cell-based; conditions: T47D, 8 µM, R5020 1.0 nM
T2 sequence (P06401 679-933 limits assumed): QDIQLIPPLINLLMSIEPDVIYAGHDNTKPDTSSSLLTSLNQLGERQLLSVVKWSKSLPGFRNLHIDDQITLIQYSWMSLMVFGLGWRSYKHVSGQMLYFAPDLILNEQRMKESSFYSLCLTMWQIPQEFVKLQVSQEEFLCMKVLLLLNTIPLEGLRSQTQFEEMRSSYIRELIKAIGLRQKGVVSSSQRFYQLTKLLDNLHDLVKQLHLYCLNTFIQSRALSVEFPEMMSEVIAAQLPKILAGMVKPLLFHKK
Description: as §2
Experiments testing the effect of flavonoids on progesterone receptor-mediated transcription employed T47D K5pluc cells. The protocol was the same as that for T47D (A1-2) cells except the medium was Dulbecco’s Modified Eagle’s Medium supplemented with 10% FBS, insulin (10 nM), puromycin 200 ng/mL, nonessential amino acids, penicillin (100 U/mL), and streptomycin (100 μg/mL). When treated with hormone, the synthetic progestin, R5020, was used at 1.0 nM. Hormone treatment was for 20 h at which time cells were harvested for assay of alkaline phosphatase and luciferase.
as §1

O=c1c(O)c(-c2ccc(O)cc2)oc2ccc(O)cc12 [3,6,4′-trihydroxyflavone]
affinity for ER greater than that of 6,4′-dihydroxyflavone (estrogen receptor (ER) [1]): 3 fold | % ER Induction (estrogen receptor (ER) [2]; 1 µM): 102% | % ER Induction (estrogen receptor (ER) [2]; 4 µM): 108% | EC50 lower than that of 6,4′-dihydroxyflavone (estrogen receptor (ER) [2]; comparison at lower concentrations): 2–3 fold | inhibition at 1 µM (human AR): 53% | inhibition at 4 µM (human AR): 71%

COc1cccc2oc(-c3ccc(O)cc3)cc(=O)c12 [5-methoxy,4′-hydroxyflavone]
% ER Induction (estrogen receptor (ER) [2]; 1 µM): −2% | % ER Induction (estrogen receptor (ER) [2]; 4 µM): 10% | inhibition at 1 µM (human AR): -4% | inhibition at 4 µM (human AR): 34%

COc1ccc(-c2cc(=O)c3cc(O)ccc3o2)cc1 [6-hydroxy,4′-methoxyflavone]
% ER Induction (estrogen receptor (ER) [2]; 1 µM): 63% | % ER Induction (estrogen receptor (ER) [2]; 4 µM): 131% | inhibition at 1 µM (human AR): 32% | inhibition at 4 µM (human AR): 39%

O=C1CC(c2ccccc2)Oc2ccc(O)cc21 (stereo not drawn) [6-hydroxyflavanone]
% ER Induction (estrogen receptor (ER) [2]; 1 µM): 15% | % ER Induction (estrogen receptor (ER) [2]; 4 µM): 111% | inhibition at 1 µM (human AR): -8% | inhibition at 4 µM (human AR): 22%

COc1ccc2oc(-c3ccc(O)cc3)cc(=O)c2c1 [6-methoxy,4′-hydroxyflavone]
% ER Induction (estrogen receptor (ER) [2]; 1 µM): 129% | % ER Induction (estrogen receptor (ER) [2]; 4 µM): 167% | inhibition at 1 µM (human AR): 27% | inhibition at 4 µM (human AR): 49%

Oc1ccc(C2COc3cc(O)ccc3C2)cc1 (stereo not drawn) [7,4′-dihydroxyisoflavan]
% ER Induction (estrogen receptor (ER) [2]; 1 µM): 96% | % ER Induction (estrogen receptor (ER) [2]; 4 µM): 84% | inhibition at 4 µM (human AR): 22% | inhibition at 8 µM ([3]; AP (alkaline phosphatase)): 42% | inhibition at 8 µM ([3]; LUC (luciferase)): -88%
